Measurements: patent US11596611B2, “Hepatitis B antiviral agents” (ENANTA PHARMACEUTICALS, INC., priority 2017, dated 2023)

Key:
HBV = assay: HepAD38 antiviral assay: reduction of viral product accumulation (virion DNA by qPCR, HBsAg or HBeAg by ELISA); type: cell-based, hepatitis B virus; details: Hepatitis B virus, 120 h; HepAD38 cells, five days after compound addition; 50% reduction of viral product vs no drug controls; read-out: HepAD38 EC50
Summary of the method: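 Readouts were qPCR of lysed virion DNA plus ELISA for HBsAg or HBeAg, samples diluted into linear range. HepAD38 cells, washed free of tetracycline, received compound diluted 1:200 from DMSO for 5 days; 8-day variant refreshed media and compound on days 2 and 5.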

[1] = Compound toxicity by ATPLite (total ATP levels); type: cell-based; details: human, three days after compound addition, 50% reduction of total ATP
Procedure: Methods: HepAD38 cells are maintained as previously reported (Ladner et al, Antimicrob. Agents Chemother. 1997, […], 1715). Briefly, cells are passaged upon attaining confluency in DMEM/F12 media in the presence of 10% FBS, Penn/Strep, 250 μg/mL G418, and 1 ug/ml tetracycline. Novel compounds are screened by first washing cells three times with PBS to remove tetracycline, and plating in 96 well plates at 35,000 cells/well. Compounds dissolved in DMSO are then diluted 1:200 into wells containing cells. Five days after compound addition, material is harvested for analysis. For an extended 8 days analysis, cells are plated and treated as described above, but media and compound are refreshed on d2 and d5 post initial treatment.
Compound toxicity is evaluated by seeding cells at 15,000 cells/well and treating with compound as described above.

| Compound | EC50 (HBV) [nM] | CC50 at 3 days ([1]; class symbols) [nM] | CC50 at 3 days ([1]; numeric bounds) [nM] |
| --- | --- | --- | --- |
| C[C@H](O)CNC(=O)C[C@]1(O)C2CCC1C[C@@H](S(=O)(=O)c1cc(C(=O)Nc3ccc(F)c(C(F)F)c3)ccc1Cl)C2 [Example 129] | < 104 | > 25000 | – |
| C[C@@H](O)[C@H](O)COC[C@]1(O)C2CCC1C[C@@H](S(=O)(=O)c1cc(C(=O)Nc3ccc(F)c(F)c3)ccc1Cl)C2 [Example 178] | < 104 | > 25000 | – |
| O=C(Nc1ccc(F)c(C(F)F)c1)c1ccc(Cl)c(S(=O)(=O)[C@H]2CC3CCC(C2)[C@]3(O)CO)c1 [Example 151] | < 104 | > 25000 | – |
| O=C(NC[C@@]1(O)C2CC[C@H]1C[C@H](S(=O)(=O)c1cc(C(=O)Nc3cc(F)c(F)c(F)c3)ccc1Cl)C2)C1=CCCC1 [Example 41] | < 104 | – | > 6250 |
| C[C@@H](O)COC[C@]1(O)C2CCC1C[C@@H](S(=O)(=O)c1cc(C(=O)Nc3ccc(F)c(F)c3)ccc1Cl)C2 [Example 177] | < 104 | – | > 6250 |
| O=C(C[C@]1(O)C2CCC1C[C@@H](S(=O)(=O)c1cc(C(=O)Nc3ccc(F)c(F)c3)ccc1Cl)C2)NC1CC(O)C1 (stereo partly drawn) [Example 192] | < 104 | – | > 12500 |
| O=C(Nc1cc(F)c(F)c(F)c1)c1ccc(Cl)c(S(=O)(=O)[C@H]2CC3CCC(C2)[C@]3(O)CNC(=O)C2CCCOC2)c1 (stereo partly drawn) [Example 90] | < 104 | – | > 6250 |
| C[C@@H](O)[C@H](O)COC[C@]1(O)C2CCC1C[C@@H](S(=O)(=O)c1cc(C(=O)Nc3cc(F)c(F)c(F)c3)ccc1Cl)C2 (single isomer, unassigned) [Example 163] | < 104 | > 25000 | – |
| O=C(C[C@]1(O)C2CCC1C[C@@H](S(=O)(=O)c1cc(C(=O)Nc3cc(F)c(F)c(F)c3)ccc1Cl)C2)N[C@H]1C[C@H](O)C1 [Example 111] | < 104 | – | > 3000 |
| C[C@@H](O)[C@@H](O)[C@]1(O)C2CCC1C[C@@H](S(=O)(=O)c1cc(C(=O)Nc3cc(F)c(F)c(F)c3)ccc1Cl)C2 (racemic) [Example 4] | < 104 | – | > 12500 |
| O=C(Nc1ccc(F)c(F)c1)c1ccc(Cl)c(S(=O)(=O)[C@H]2CC3CCC(C2)[C@]3(O)[C@H](O)c2ccccn2)c1 (single isomer, unassigned) [Example 284b] | < 104 | > 25000 | – |
| CC(C)(C)OC(=O)N[C@@H](Cc1ccccc1)C(=O)N1C2CCC1CC(S(=O)(=O)c1cc(C(=O)Nc3cc(F)c(F)c(F)c3)ccc1Cl)C2 (stereo partly drawn) [Example 152] | > 200 | > 25000 | – |
| C[C@H](O)[C@@H](O)[C@]1(O)C2CCC1C[C@@H](S(=O)(=O)c1cc(C(=O)Nc3cc(F)c(F)c(F)c3)ccc1Cl)C2 (racemic) [Example 5] | < 104 | – | > 3000 |
| COCC1(NC(=O)C[C@]2(O)C3CCC2C[C@@H](S(=O)(=O)c2cc(C(=O)Nc4cc(F)c(F)c(F)c4)ccc2Cl)C3)CC1 [Example 116] | < 104 | – | > 3000 |
| C[C@@H](O)[C@@H](O)[C@@]1(O)C2CC[C@H]1C[C@H](S(=O)(=O)c1cc(C(=O)Nc3cc(F)c(F)c(F)c3)ccc1Cl)C2 (single isomer, unassigned) [Example 136] | < 104 | – | > 12500 |
| C[C@H](O)COC[C@]1(O)C2CCC1C[C@@H](S(=O)(=O)c1cc(C(=O)Nc3cc(F)c(F)c(F)c3)ccc1Cl)C2 [Example 131] | < 104 | – | > 12500 |
| O=C(Nc1cc(F)c(F)c(F)c1)c1ccc(Cl)c(S(=O)(=O)[C@H]2CC3CCC(C2)[C@]3(O)CNC(=O)c2ncco2)c1 [Example 88] | < 104 | – | > 6250 |
| O=C(Nc1cc(F)c(F)c(F)c1)c1ccc(Cl)c(S(=O)(=O)[C@H]2CC3CCC(C2)[C@]3(O)CNC(=O)C2CCCCO2)c1 (stereo partly drawn) [Example 91] | < 104 | 10000 to 25000 | – |
| CC(O)C[C@@]1(O)C2CC[C@H]1C[C@H](S(=O)(=O)c1cc(C(=O)Nc3ccc(F)c(F)c3)ccc1Cl)C2 (stereo partly drawn) [Example 218] | < 104 | 10000 to 25000 | – |
| O=C(Nc1cc(F)c(F)c(F)c1)c1ccc(Cl)c(S(=O)(=O)[C@H]2CC3CCC(C2)[C@]3(O)COCCO)c1 [Example 62] | < 104 | – | > 12500 |
| C=CCNC(=O)C[C@]1(O)C2CCC1C[C@@H](S(=O)(=O)c1cc(C(=O)Nc3cc(F)c(F)c(F)c3)ccc1Cl)C2 [Example 58] | < 104 | – | > 12500 |
| C[C@@H](O)[C@@H](O)[C@]1(O)C2CCC1C[C@@H](S(=O)(=O)c1cc(C(=O)Nc3ccc(F)c(F)c3)ccc1Cl)C2 (mixture of isomers) [Example 172] | < 104 | > 25000 | – |
| C=CCc1cc(Cl)c(S(=O)(=O)[C@H]2CC3CCC(C2)[C@@]3(C)O)cc1C(=O)Nc1ccc(F)c(F)c1 [Example 135] | < 104 | < 10000 | – |
| CO[C@@H](C)CNC(=O)C[C@]1(O)C2CCC1C[C@@H](S(=O)(=O)c1cc(C(=O)Nc3ccc(F)c(F)c3)ccc1Cl)C2 [Example 188] | < 104 | – | > 12500 |
| O=C(Nc1ccc(F)c(F)c1)c1ccc(Cl)c(S(=O)(=O)[C@@H]2CC3CC[C@@H](C2)[C@@]3(O)C(O)c2nccs2)c1 (stereo partly drawn) [Example 302] | < 104 | > 25000 | – |
| C[C@H](O)[C@@H](O)[C@@]1(O)C2CC[C@H]1C[C@H](S(=O)(=O)c1cc(C(=O)Nc3cc(F)c(F)c(F)c3)ccc1Cl)C2 (single isomer, unassigned) [Example 137] | < 104 | – | > 6250 |
| O=C(Nc1cc(F)c(F)c(F)c1)c1ccc(Cl)c(S(=O)(=O)[C@H]2CC3CCC(C2)[C@@]3(O)C(O)CO)c1 (mixture of isomers) [Example 10] | < 104 | – | > 12500 |
